Test results from US12528815B2, “5-amino-8-(4-pyridyl)-[1,2,4]triazolo[4,3-c]pyrimidin-3-one compounds for use against cancer” (Nxera Pharma UK Limited, priority 2020, dated 2026).

Experiments:
[1] = biological target: T1, human adenosine A1 receptor (Homo sapiens, UniProt P30542); assay: Inhibition binding assay, human adenosine A1 receptor membranes, [3H]DPCPX; conditions: 1 nM [3H]DPCPX, 25° C., 1 h; IC50 converted to Ki with Cheng-Prusoff; read-out: A1 pKi (converted)
T1 construct: expressed in transfected cells; host or cells: HEK293 cells infected with BacMam (the same paragraph also labels the preparation CHO-hA1)
T1 sequence (P30542 1-326): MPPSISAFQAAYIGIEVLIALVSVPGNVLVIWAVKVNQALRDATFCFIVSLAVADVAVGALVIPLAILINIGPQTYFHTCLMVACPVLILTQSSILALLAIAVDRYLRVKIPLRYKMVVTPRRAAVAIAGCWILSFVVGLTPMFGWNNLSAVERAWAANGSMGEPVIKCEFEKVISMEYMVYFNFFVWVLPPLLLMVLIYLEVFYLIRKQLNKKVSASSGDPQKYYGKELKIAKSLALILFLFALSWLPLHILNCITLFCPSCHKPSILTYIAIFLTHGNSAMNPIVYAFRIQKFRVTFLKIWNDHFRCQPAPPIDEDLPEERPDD
Summary of the method: (§1)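 Membranes from BacMam-infected HEK293 cells (0.2 μg A2A, 1.4 μg A1) incubated 1 h at 25° C with test compound and 1 nM [3H]ZM241385 (A2A; 50 mM Tris-HCl pH 7.4) or [3H]DPCPX (A1; plus 100 mM NaCl, 10 mM MgCl2). Nonspecific: 1 μM CGS15943 or DPCPX. Filtration, scintillation; IC50 converted to Ki via Cheng-Prusoff.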

[2] = biological target: T2, human adenosine A2A receptor (Homo sapiens, UniProt P29274); assay: Inhibition binding assay, human adenosine A2A receptor membranes, [3H]ZM241385; conditions: 1 nM [3H]ZM241385, HEK293-hA2A membranes, 25° C., 1 h; IC50 converted to Ki with Cheng-Prusoff; read-out: A2A pKi (converted)
T2 construct: expressed in transfected cells; host or cells: HEK293 cells infected with BacMam
Summary of the method: as §1

T2 sequence (P29274 whole entry): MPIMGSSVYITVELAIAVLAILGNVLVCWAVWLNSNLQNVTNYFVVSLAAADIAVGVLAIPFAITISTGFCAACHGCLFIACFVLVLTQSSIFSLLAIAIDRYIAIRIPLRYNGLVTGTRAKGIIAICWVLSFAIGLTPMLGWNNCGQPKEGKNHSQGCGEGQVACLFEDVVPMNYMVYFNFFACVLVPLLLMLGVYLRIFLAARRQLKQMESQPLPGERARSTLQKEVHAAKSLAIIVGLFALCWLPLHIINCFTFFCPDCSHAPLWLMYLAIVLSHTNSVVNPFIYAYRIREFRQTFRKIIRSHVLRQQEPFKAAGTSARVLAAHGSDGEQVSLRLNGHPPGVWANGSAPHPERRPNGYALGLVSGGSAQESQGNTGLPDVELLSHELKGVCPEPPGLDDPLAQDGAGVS

Ki [1] [nM] | Ki [2] [nM] | Structure (SMILES)
794 | 1.58 | Cc1cc(-c2c(-c3ccc(F)cc3)nc(N)n3c(=O)n(Cc4ccc(F)c(N)n4)nc23)cc(CO)n1 [Example 1-60, 5-amino-2-[(6-amino-5-fluoro-2-pyridyl)methyl]-7-(4-fluorophenyl)-8-[2-(hydroxymethyl)-6-methyl-4-pyridyl]-[1,2,4]triazolo[4,3-c]pyrimidin-3-one]
> 1580 | 1.58 | Cc1ccc(Cn2nc3c(-c4cc(C)nc(CO)c4)c(-c4ccc(F)cc4)nc(N)n3c2=O)nc1 [Example 1-61, 5-amino-7-(4-fluorophenyl)-8-[2-(hydroxymethyl)-6-methyl-4-pyridyl]-2-[(5-methyl-2-pyridyl)methyl]-[1,2,4]triazolo[4,3-c]pyrimidin-3-one]
1000 | 3.98 | Cc1cc(-c2c(-c3ccc(F)cc3)nc(N)n3c(=O)n(Cc4ccc(Cl)cn4)nc23)cc(CO)n1 [Example 1-62, 5-amino-2-[(5-chloro-2-pyridyl)methyl]-7-(4-fluorophenyl)-8-[2-(hydroxymethyl)-6-methyl-4-pyridyl]-[1,2,4]triazolo[4,3-c]pyrimidin-3-one]
> 3980 | 631 | Cc1cc(-c2c(-c3ccc(F)cc3)nc(N)n3c(=O)n(Cc4ccc(C#N)cn4)nc23)cc(CO)n1 [Example 1-63, 6-[[5-amino-7-(4-fluorophenyl)-8-[2-(hydroxymethyl)-6-methyl-4-pyridyl]-3-oxo-[1,2,4]triazolo[4,3-c]pyrimidin-2-yl]methyl]pyridine-3-carbonitrile]
501 | 0.631 | COc1cc(-c2c(-c3ccccc3)nc(N)n3c(=O)n(Cc4ccc(C)cn4)nc23)cc(CO)n1 [Example 1-66, 5-amino-8-[2-(hydroxymethyl)-6-methoxy-4-pyridyl]-2-[(5-methyl-2-pyridyl)methyl]-7-phenyl-[1,2,4]triazolo[4,3-c]pyrimidin-3-one]
> 1580 | 1.26 | COc1cc(-c2c(-c3ccc(F)cc3)nc(N)n3c(=O)n(Cc4ccc(Cl)cn4)nc23)cc(CO)n1 [Example 1-68, 5-amino-2-[(5-chloro-2-pyridyl)methyl]-7-(4-fluorophenyl)-8-[2-(hydroxymethyl)-6-methoxy-4-pyridyl]-[1,2,4]triazolo[4,3-c]pyrimidin-3-one]
251 | 0.794 | Nc1nc(-c2ccccc2)c(-c2cc(Cl)nc(CO)c2)c2nn(Cc3ccc(F)cn3)c(=O)n12 [Example 1-69, 5-amino-8-[2-chloro-6-(hydroxymethyl)-4-pyridyl]-2-[(5-fluoro-2-pyridyl)methyl]-7-phenyl-[1,2,4]triazolo[4,3-c]pyrimidin-3-one]
631 | 20 | Cc1cc(-c2c(-c3ccccc3)nc(N)n3c(=O)n(Cc4ccc(F)cn4)nc23)cc(N(C)C)n1 [Example 1-71, 5-amino-8-[2-(dimethylamino)-6-methyl-4-pyridyl]-2-[(5-fluoro-2-pyridyl)methyl]-7-phenyl-[1,2,4]triazolo[4,3-c]pyrimidin-3-one]
126 | 2.51 | Cc1cc(-c2c(-c3ccccc3)nc(N)n3c(=O)n(Cc4ccc(F)cn4)nc23)cc(C(F)(F)F)n1 [Example 1-72, 5-amino-2-[(5-fluoro-2-pyridyl)methyl]-8-[2-methyl-6-(trifluoromethyl)-4-pyridyl]-7-phenyl-[1,2,4]triazolo[4,3-c]pyrimidin-3-one]
398 | 2.51 | COc1cc(-c2c(-c3ccccc3)nc(N)n3c(=O)n(Cc4ccc(F)cn4)nc23)cc(CO)n1 [Example 1-73, 5-amino-2-[(5-fluoro-2-pyridyl)methyl]-8-[2-(hydroxymethyl)-6-methoxy-4-pyridyl]-7-phenyl-[1,2,4]triazolo[4,3-c]pyrimidin-3-one]
> 3160 | 316 | Cc1cc(-c2c(-c3ccccc3)nc(N)n3c(=O)n(Cc4ccc(F)cn4)nc23)cc(O)n1 [Example 1-74, 5-amino-2-[(5-fluoro-2-pyridyl)methyl]-8-(2-hydroxy-6-methyl-4-pyridyl)-7-phenyl-[1,2,4]triazolo[4,3-c]pyrimidin-3-one]
79.4 | 0.126 | Cc1cc(-c2c(-c3ccccc3)nc(N)n3c(=O)n(Cc4ccc(F)cn4)nc23)cc(Cl)n1 [Example 1-76, 5-amino-8-(2-chloro-6-methyl-4-pyridyl)-2-[(5-fluoro-2-pyridyl)methyl]-7-phenyl-[1,2,4]triazolo[4,3-c]pyrimidin-3-one]
200 | 0.398 | COc1ccc(Cn2nc3c(-c4cc(C)nc(Cl)c4)c(-c4ccccc4)nc(N)n3c2=O)nc1 [Example 1-77, 5-amino-8-(2-chloro-6-methyl-4-pyridyl)-2-[(5-methoxy-2-pyridyl)methyl]-7-phenyl-[1,2,4]triazolo[4,3-c]pyrimidin-3-one]
158 | 0.126 | COc1cc(-c2c(-c3ccccc3)nc(N)n3c(=O)n(Cc4ccc(F)cn4)nc23)cc(C)n1 [Example 1-78, 5-amino-2-[(5-fluoro-2-pyridyl)methyl]-8-(2-methoxy-6-methyl-4-pyridyl)-7-phenyl-[1,2,4]triazolo[4,3-c]pyrimidin-3-one]
251 | 2.51 | Nc1nc(-c2ccccc2)c(-c2cc(Cl)nc(C(F)(F)F)c2)c2nn(Cc3ccc(F)cn3)c(=O)n12 [Example 1-79, 5-amino-8-[2-chloro-6-(trifluoromethyl)-4-pyridyl]-2-[(5-fluoro-2-pyridyl)methyl]-7-phenyl-[1,2,4]triazolo[4,3-c]pyrimidin-3-one]
631 | 25.1 | Cc1cc(-c2c(-c3ccccc3)nc(N)n3c(=O)n(C(C)Cc4ccccc4)nc23)cc(C)n1 (centres unmarked) [Example 1-81, 5-amino-8-(2,6-dimethyl-4-pyridyl)-2-(1-methyl-2-phenyl-ethyl)-7-phenyl-[1,2,4]triazolo[4,3-c]pyrimidin-3-one]
251 | 12.6 | Cc1cc(-c2c(-c3ccccc3)nc(N)n3c(=O)n(CCc4ccc(O)cc4)nc23)cc(C)n1 [Example 1-82, 5-amino-8-(2,6-dimethyl-4-pyridyl)-2-[2-(4-hydroxyphenyl)ethyl]-7-phenyl-[1,2,4]triazolo[4,3-c]pyrimidin-3-one]
251 | 20 | Cc1cc(-c2c(-c3ccccc3)nc(N)n3c(=O)n(CCc4ccc(F)cc4)nc23)cc(C)n1 [Example 1-83, 5-amino-8-(2,6-dimethyl-4-pyridyl)-2-[2-(4-fluorophenyl)ethyl]-7-phenyl-[1,2,4]triazolo[4,3-c]pyrimidin-3-one]
794 | 31.6 | COC(=O)c1ccc(CCn2nc3c(-c4cc(C)nc(C)c4)c(-c4ccccc4)nc(N)n3c2=O)cc1 [Example 1-84, methyl 4-[2-[5-amino-8-(2,6-dimethyl-4-pyridyl)-3-oxo-7-phenyl-[1,2,4]triazolo[4,3-c]pyrimidin-2-yl]ethyl]benzoate]
> 3980 | 200 | Cc1cc(-c2c(-c3ccccc3)nc(N)n3c(=O)n(CCc4ccc(C(=O)O)cc4)nc23)cc(C)n1 [Example 1-85, 4-[2-[5-amino-8-(2,6-dimethyl-4-pyridyl)-3-oxo-7-phenyl-[1,2,4]triazolo[4,3-c]pyrimidin-2-yl]ethyl]benzoic acid]
794 | 5.01 | Cc1cc(-c2c(-c3ccccc3)nc(N)n3c(=O)n(CCc4ccccn4)nc23)cc(C)n1 [Example 1-86, 5-amino-8-(2,6-dimethyl-4-pyridyl)-7-phenyl-2-[2-(2-pyridyl)ethyl]-[1,2,4]triazolo[4,3-c]pyrimidin-3-one]
501 | 15.8 | Cc1cc(-c2c(-c3ccc(F)cc3)nc(N)n3c(=O)n(CCc4ccccc4)nc23)cc(C)n1 [Example 1-87, 5-amino-8-(2,6-dimethyl-4-pyridyl)-7-(4-fluorophenyl)-2-(2-phenylethyl)-[1,2,4]triazolo[4,3-c]pyrimidin-3-one]
100 | 12.6 | Cc1cc(-c2c(-c3ccccc3)nc(N)n3c(=O)n(CCc4ccccc4)nc23)cc(C(F)(F)F)n1 [Example 1-88, 5-amino-8-[2-methyl-6-(trifluoromethyl)-4-pyridyl]-7-phenyl-2-(2-phenylethyl)-[1,2,4]triazolo[4,3-c]pyrimidin-3-one]
126 | 5.01 | Cc1cc(-c2c(-c3ccccc3)nc(N)n3c(=O)n(CCc4ccccc4)nc23)cc(Cl)n1 [Example 1-89, 5-amino-8-(2-chloro-6-methyl-4-pyridyl)-7-phenyl-2-(2-phenylethyl)-[1,2,4]triazolo[4,3-c]pyrimidin-3-one]
398 | 12.6 | Cc1cc(-c2c(-c3ccccc3)nc(N)n3c(=O)n(CCc4ccccc4)nc23)cc(N2CCC2)n1 [Example 1-90, 5-amino-8-[2-(azetidin-1-yl)-6-methyl-4-pyridyl]-7-phenyl-2-(2-phenylethyl)-[1,2,4]triazolo[4,3-c]pyrimidin-3-one]
